Laboratory results reported in patent US20120022045A1, “BRIDGED COMPOUNDS AS HIV INTEGRASE INHIBITORS” (priority 2009, published 2012).
Where two headings read alike, the source gives them in different places.

How the values were obtained:
Assay type in all cases: cell-based
[1] = test system: HIV-1; assay: Inhibition of acute HIV-1 infection of T-lymphoid cells (spread assay); settings: 10% FBS, read-out: IC95 (nM) in the presence of 10% FBS
Procedure: Assays for the inhibition of acute HIV-1 infection of T-lymphoid cells were conducted in accordance with Vacca, J. P. et al., Proc. Natl. Acad. Sci. USA 1994, 91: 4096.

[2] = test system: HIV-1 wild type IIIB; assay: Single cycle infectivity assay in HeLa P4-2 cells, wild type virus
Procedure: (§1) An assay for measuring the inhibition of acute HIV-1 infection with HeLa P4-2 cells in a single cycle infectivity assay was conducted using methods described in Joyce et al., J. Biol. Chem. 2002, 277: 45811, Hazuda et al., Science 2000, 287: 646, and Kimpton et al, J. Virol. 1992, 66: 2232. Proviral plasmids encoding viruses containing specific mutations in the integrase gene (N155H, Q148R, Y143R, E92Q, or G140S/Q148H) were generated by site-directed mutagenesis, and viruses were produced by transfecting 293T cells with the appropriate proviral plasmids.

[3] = test system: HIV-1 integrase mutant virus N155H; assay: Single cycle infectivity assay in HeLa P4-2 cells, integrase mutant N155H virus; settings: fold shift in IC50 versus wild type IIIB
Procedure: as §1

[4] = test system: HIV-1 integrase mutant virus Q148R; assay: Single cycle infectivity assay in HeLa P4-2 cells, integrase mutant Q148R virus; settings: fold shift in IC50 versus wild type IIIB
Procedure: as §1

[5] = test system: HIV-1 integrase mutant virus Y143R; assay: Single cycle infectivity assay in HeLa P4-2 cells, integrase mutant Y143R virus; settings: fold shift in IC50 versus wild type IIIB
Procedure: as §1

[6] = test system: HIV-1 integrase mutant virus G140S/Q148H; assay: Single cycle infectivity assay in HeLa P4-2 cells, integrase mutant G140S/Q148H virus; settings: fold shift in IC50 versus wild type IIIB
Procedure: as §1

[7] = Human immunodeficiency virus 1, IIIB, HeLaP4-2, wild type IIIB

Structure (SMILES) | IC95 ([1]; Human immunodeficiency virus 1, T-lymphoid) [nM] | IC50 [2, 7] [nM] | N155H (shift) [3] [fold] | Q148R (shift) [4] [fold] | Y143R (shift) [5] [fold] | G140S/Q148H (shift) [6] [fold] | IC95 [1] [nM] | IC50 ([2]; wild type IIIB) [nM]
CCCN(C(=O)C(=O)N(C)C)C12CCC(Cn3c1nc(C(=O)NCc1ccc(F)cc1)c(O)c3=O)OC2 (stereo not drawn) [Example 19, N-(4-{[(4-fluorolbenzyl)amino]carbonyl}-5-hydroxy-6-oxo-10-oxa-3,7-diazatricyclo[7.2.2.0^2,7]trideca-2,4-dien-1-yl)-N′,N′-dimethyl-N-propylethanediamide] | 15.9 | 8 | 45 | 59 | 7 | >209 | – | –
CCC12CCC(NC(=O)C(=O)N(C)C)(CO1)c1nc(C(=O)NCc3ccc(F)cc3)c(O)c(=O)n1C2 (single isomer, unassigned) [Example 22B, N′-(9-ethyl-4-{[(4-fluorolbenzyl)amino]carbonyl}-5-hydroxy-6-oxo-10-oxa-3,7-diazatricyclo[7.2.2.0^2,7]trideca-2,4-dien-1-yl)-N,N-dimethylethanediamide] | – | – | 3 | 3 | 1 | 10 | 12.6 | 19
CC1C2CCC(NC(=O)C(=O)N(C)C)(CO2)c2nc(C(=O)NCc3ccc(F)cc3)c(O)c(=O)n21 (single isomer, unassigned) [Example 29B, N′-(4-{[(4-Fluorobenzyl)amino]carbonyl}-5-hydroxy-8-methyl-6-oxo-10-oxa-3,7-diazatricyclo[7.2.2.0^2,7]trideca-2,4-dien-1-yl)-N-dimethylethanediamide] | – | – | 1 | 3 | 2 | 2 | – | 69
CN(C)C(=O)C(=O)N(C)C1CCCCn2c1nc(C(=O)NCc1ccc(F)cc1)c(O)c2=O (stereo not drawn) [Compound Y, (—)N-(2-{[(4-fluorobenzyl)amino]-carbonyl}-3-hydroxy-4-oxo-4,6,7,8,9,10-hexahydropyrimido[1,2-a]azepin-10-yl)-N,N′,N′-trimethylethanediamide, reference compound] | – | 16 | 15 | 26 | 1 | 410 | – | –
CC1(C)OCCn2c1nc(C(=O)NCc1ccc(F)cc1)c(O)c2=O [Compound Z, N-[(4-fluorophenyl)methyl]-3-hydroxy-9,9-dimethyl-4-oxo-4,6,7,9-tetrahydro-6H-pyrimido[2,1-c][1,4]oxazine-2-carboxamide, reference compound] | – | – | 32 | >34 | 1 | >34 | – | 34
Cc1nnc(C(=O)NC(C)(C)c2nc(C(=O)NCc3ccc(F)cc3)c(O)c(=O)n2C)o1 [Compound X, raltegravir, reference compound] | – | 52 | 13 | 22 | 15 | 400 | – | –
CNC(=O)C(=O)N(C)C12CCC(OC1)C(C)n1c2nc(C(=O)NCc2ccc(F)cc2)c(O)c1=O (single isomer, unassigned) [Example 28B, N-(4-{[(4-fluorobenzyl)amino]carbonyl}-5-hydroxy-8-methyl-6-oxo-10-oxa-3,7-diazatricyclo[7.2.2.0^2,7]trideca-2,4-dien-1-yl)-N,N′-dimethylethanediamide] | – | – | – | – | – | – | 15.9 | –
